The structures appear in SMILES notation. Read-outs that look alike come from different tables or passages of the source.

The target in the assay is T1, human P2X4 (Homo sapiens, UniProt Q99571).
T1 sequence (Q99571 1-388): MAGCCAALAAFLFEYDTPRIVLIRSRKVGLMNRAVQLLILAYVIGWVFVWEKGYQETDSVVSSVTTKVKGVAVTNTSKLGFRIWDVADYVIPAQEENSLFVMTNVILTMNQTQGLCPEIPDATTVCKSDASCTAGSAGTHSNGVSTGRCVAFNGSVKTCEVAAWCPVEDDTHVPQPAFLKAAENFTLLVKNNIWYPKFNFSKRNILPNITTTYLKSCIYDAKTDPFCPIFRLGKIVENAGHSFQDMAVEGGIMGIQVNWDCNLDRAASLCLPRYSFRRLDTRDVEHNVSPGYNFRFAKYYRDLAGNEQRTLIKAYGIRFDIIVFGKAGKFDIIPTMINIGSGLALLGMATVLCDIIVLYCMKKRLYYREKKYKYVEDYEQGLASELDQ
The assay can be described thus: Human P2X4 HEK Cell FLIPR Assay. The format is cell-based. Particulars: agonist Bz-ATP at EC80; for Emax: percentage of maximal inhibition, read-out: Human P2X4 HEK Cells (FLIPR Assay) avg Efficacy [%]; for IC50: individual values listed where some fall outside detection range. The procedure, abridged:
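HEK293 cells stably expressing human P2X4, Fluo8-AM loaded 30 min at 37° C, then compound 30 min at room temperature (0.5% DMSO, pH 7.4 buffer with 1.8 mM CaCl2). Bz-ATP at its daily-determined EC80 added; calcium fluorescence read over 120 sec; IC50 from peak RFU normalized to agonist control, triplicates.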

A word on the IC50: it is the concentration at which inhibition is half-maximal. On to `NS(=O)(=O)c1cc(NC(=O)Cc2ccccc2F)ccc1-c1cncc(F)c1` [Example 362, 2-(2-Fluorophenyl)-N-[4-(5-fluoropyridin-3-yl)-3-sulfamoylphenyl]acetamide], for which, where the note is “HEK293, HEK293 cells”, the Emax was 78%. In addition, for the setting “HEK293 cells”, the IC50 stood at 102 nM.

For the compound `Cc1c(-c2ccc(NC(=O)Cc3ccccc3Cl)cc2S(N)(=O)=O)cnn1-c1ccccc1` [Example 363, 2-(2-Chlorophenyl)-N-[4-(5-methyl-1-phenyl-1H-pyrazol-4-yl)-3-sulfamoylphenyl]-acetamide], the Emax (HEK293, HEK293 cells) stood at 110%. The compound also registered an IC50 (HEK293 cells) of 108 nM.

Turning to `CN(C)CCNC(=O)c1cccc(-c2ccc(NC(=O)Cc3ccccc3Cl)cc2S(N)(=O)=O)c1` [Example 364, 4′-{[(2-Chlorophenyl)acetyl]amino}-N-[2-(dimethylamino)ethyl]-2′-sulfamoylbiphenyl-3-carboxamide], under “HEK293, HEK293 cells”, the Emax is 77%. In addition, the IC50 (HEK293 cells) stood at 715 nM.

With `NS(=O)(=O)c1cc(NC(=O)Cc2ccccc2Cl)ccc1-c1cnn2cccnc12` [Example 365, 2-(2-Chlorophenyl)-N-[4-(pyrazolo[1,5-a]pyrimidin-3-yl)-3-sulfamoylphenyl]acetamide], the Emax (HEK293, HEK293 cells) amounted to 89%. Moreover, the half-maximal inhibitory concentration (IC50) (HEK293 cells) came to 113 nM.

On to `NS(=O)(=O)c1cc(NC(=O)Cc2ccccc2Cl)ccc1-c1cncc(C(=O)N2CCCC2)c1` [Example 366, 2-(2-Chlorophenyl)-N-{4-[5-(pyrrolidin-1-ylcarbonyl)pyridin-3-yl]-3-sulfamoylphenyl}acetamide], for which, where the note is “HEK293, HEK293 cells”, the Emax is 97%. The IC50 (HEK293 cells) came to 128 nM.

Turning to `NS(=O)(=O)c1cc(NC(=O)Cc2ccccc2Cl)ccc1-c1cn[nH]c1` [Example 367, 2-(2-Chlorophenyl)-N-[4-(1H-pyrazol-4-yl)-3-sulfamoylphenyl]acetamide], the Emax (HEK293, HEK293 cells) worked out at 83%. The same compound registered an IC50 (HEK293 cells) of 131 nM.

On to `Cn1nc(C(F)(F)F)cc1-c1ccc(NC(=O)Cc2ccccc2F)cc1S(N)(=O)=O` [Example 368, 2-(2-Fluorophenyl)-N-{4-[1-methyl-3-(trifluoromethyl)-1H-pyrazol-5-yl]-3-sulfamoylphenyl}acetamide], for which the Emax (HEK293, HEK293 cells) came to 100%. The compound also registered an IC50 (HEK293 cells) of 133 nM.

`COCCn1cc(-c2ccc(NC(=O)Cc3ccccc3F)cc2S(N)(=O)=O)cn1` [Example 369, 2-(2-Fluorophenyl)-N-{4-[1-(2-methoxyethyl)-1H-pyrazol-4-yl]-3-sulfamoylphenyl}acetamide]: the Emax (HEK293, HEK293 cells) was determined as 110%. The 50% inhibitory concentration (IC50) (HEK293 cells) came to 141 nM.

As for `CC(C)(O)Cn1cc(-c2ccc(NC(=O)Cc3ccccc3Cl)cc2S(N)(=O)=O)cn1` [Example 370, 2-(2-Chlorophenyl)-N-{4-[1-(2-hydroxy-2-methylpropyl)-1H-pyrazol-4-yl]-3-sulfamoylphenyl}acetamide], where the note is “HEK293, HEK293 cells”, the Emax was 76%. Further, the IC50 (HEK293 cells) is 143 nM.

As for `NS(=O)(=O)c1cc(NC(=O)Cc2cc(Cl)ccc2F)ccc1-c1cnn(C2CC2)c1` [Example 371, 2-(5-Chloro-2-fluorophenyl)-N-[4-(1-cyclopropyl-1H-pyrazol-4-yl)-3-sulfamoylphenyl]acetamide], the Emax (HEK293, HEK293 cells) is 99%. The compound also yielded an IC50 (HEK293 cells) of 152 nM.

For `Cc1ccc(-c2ccc(NC(=O)Cc3ccccc3Cl)cc2S(N)(=O)=O)cn1` [Example 372, 2-(2-Chlorophenyl)-N-[4-(6-methylpyridin-3-yl)-3-sulfamoylphenyl]acetamide], for the setting “HEK293, HEK293 cells”, the Emax came out at 83%. For the same compound, the IC50 (HEK293 cells) worked out at 166 nM.

As for `NS(=O)(=O)c1cc(NC(=O)Cc2ccccc2Cl)ccc1-c1cnn(C2COC2)c1` [Example 373, 2-(2-Chlorophenyl)-N-{4-[1-(oxetan-3-yl)-1H-pyrazol-4-yl]-3-sulfamoylphenyl}-acetamide], the Emax (HEK293, HEK293 cells) worked out at 89%. Where the note is “HEK293 cells”, this compound showed an IC50 of 167 nM.

Take `Cn1cc(-c2ccc(NC(=O)Cc3ccccc3F)cc2S(N)(=O)=O)cn1` [Example 374, 2-(2-Fluorophenyl)-N-[4-(1-methyl-1H-pyrazol-4-yl)-3-sulfamoylphenyl]acetamide]: the Emax (HEK293, HEK293 cells) was 82%. The same compound came in with an IC50 (HEK293 cells) of 386 nM.

`Cc1nn(C)cc1-c1ccc(NC(=O)Cc2ccccc2F)cc1S(N)(=O)=O` [Example 375, N-[4-(1,3-Dimethyl-1H-pyrazol-4-yl)-3-sulfamoylphenyl]-2-(2-fluorophenyl)acetamide]: the Emax (HEK293, HEK293 cells) worked out at 79%. Moreover, the IC50 (HEK293 cells) came to 660 nM.

Regarding `NS(=O)(=O)c1cc(NC(=O)Cc2ccccc2F)ccc1-c1nnc(C2CC2)o1` [Example 376, N-[4-(5-Cyclopropyl-1,3,4-oxadiazol-2-yl)-3-sulfamoylphenyl]-2-(2-fluorophenyl)-acetamide], the Emax (HEK293, HEK293 cells) worked out at 98%. The compound further had an IC50 (HEK293 cells) of 9 nM.

Consider `NS(=O)(=O)c1cc(NC(=O)Cc2ccccc2Cl)ccc1-c1nnc(C2CC2)o1` [Example 377, 2-(2-Chlorophenyl)-N-[4-(5-cyclopropyl-1,3,4-oxadiazol-2-yl)-3-sulfamoylphenyl]-acetamide], for which, for the setting “HEK293, HEK293 cells”, the Emax is 80%. The compound also came in with an IC50 (HEK293 cells) of 27 nM.

For the compound `NS(=O)(=O)c1cc(NC(=O)Cc2ccccc2F)ccc1-n1cc(C(F)F)cn1` [Example 378, N-{4-[4-(Difluoromethyl)-1H-pyrazol-1-yl]-3-sulfamoylphenyl}-2-(2-fluorophenyl)acetamide], the Emax (HEK293, HEK293 cells) came to 84%. The same compound had an IC50 (HEK293 cells) of 89 nM.

In the case of `NS(=O)(=O)c1cc(NC(=O)Cc2ccccc2Cl)ccc1-n1cc(C(F)F)cn1` [Example 379, 2-(2-Chlorophenyl)-N-{4-[4-(difluoromethyl)-1H-pyrazol-1-yl]-3-sulfamoylphenyl}acetamide], the Emax (HEK293, HEK293 cells) was found to be 87%. This compound showed an IC50 (HEK293 cells) of 29 nM.

With `NS(=O)(=O)c1cc(NC(=O)Cc2ccccc2F)cnc1-n1cc(C(F)(F)F)cn1` [Example 381, 2-(2-Fluorophenyl)-N-{5-sulfamoyl-6-[4-(trifluoromethyl)-1H-pyrazol-1-yl]pyridin-3-yl}acetamide], the Emax (HEK293, HEK293 cells) came out at 77%.

For the compound `N#Cc1cnn(-c2ncc(NC(=O)Cc3ccccc3F)cc2S(N)(=O)=O)c1` [Example 382, N-[6-(4-Cyano-1H-pyrazol-1-yl)-5-sulfamoylpyridin-3-yl]-2-(2-fluorophenyl)acetamide], the Emax (HEK293, HEK293 cells) was 87%. Also, the IC50 (HEK293 cells) was found to be 315 nM.

Take `N#Cc1cnn(-c2ncc(NC(=O)Cc3ccccc3Cl)cc2S(N)(=O)=O)c1` [Example 383, 2-(2-Chlorophenyl)-N-[6-(4-cyano-1H-pyrazol-1-yl)-5-sulfamoylpyridin-3-yl]acetamide]: the Emax (HEK293, HEK293 cells) turned out to be 93%. For the setting “HEK293 cells”, this compound had an IC50 of 45 nM.

Take `NS(=O)(=O)c1cc(NC(=O)Cc2ccccc2F)cnc1-n1cc(F)cn1` [Example 384, 2-(2-Fluorophenyl)-N-[6-(4-fluoro-1H-pyrazol-1-yl)-5-sulfamoylpyridin-3-yl]acetamide]: where the note is “HEK293, HEK293 cells”, the Emax turned out to be 81%. This compound came in with an IC50 (HEK293 cells) of 524 nM.

In the case of `NS(=O)(=O)c1cc(NC(=O)Cc2ccccc2Cl)cnc1-n1cc(F)cn1` [Example 385, 2-(2-Chlorophenyl)-N-[6-(4-fluoro-1H-pyrazol-1-yl)-5-sulfamoylpyridin-3-yl]acetamide], the Emax (HEK293, HEK293 cells) worked out at 72%. Also, the IC50 (HEK293 cells) was determined as 47 nM.

For `NS(=O)(=O)c1cc(NC(=O)Cc2ccccc2F)cnc1-n1cc(Br)cn1` [Example 386, N-[6-(4-Bromo-1H-pyrazol-1-yl)-5-sulfamoylpyridin-3-yl]-2-(2-fluorophenyl)acetamide], the Emax (HEK293, HEK293 cells) was determined as 64%. The same compound registered an IC50 (HEK293 cells) of 76 nM.

As to `NS(=O)(=O)c1cc(NC(=O)Cc2ccccc2F)cnc1-n1cc(Cl)cn1` [Example 388, N-[6-(4-Chloro-1H-pyrazol-1-yl)-5-sulfamoylpyridin-3-yl]-2-(2-fluorophenyl)acetamide], the Emax (HEK293, HEK293 cells) was 68%. Besides, for the setting “HEK293 cells”, the IC50 turned out to be 196 nM.

Consider `NS(=O)(=O)c1cc(NC(=O)Cc2ccccc2Cl)cnc1-n1cc(Br)cn1` [Example 389, N-[6-(4-Bromo-1H-pyrazol-1-yl)-5-sulfamoylpyridin-3-yl]-2-(2-chlorophenyl)-acetamide], for which the Emax (HEK293, HEK293 cells) worked out at 77%. Moreover, the IC50 (HEK293 cells) stood at 22 nM.

With `NS(=O)(=O)c1cc(NC(=O)Cc2ccccc2F)ccc1-c1nnc(C(F)(F)F)o1` [Example 390, 2-(2-Fluorophenyl)-N-{3-sulfamoyl-4-[5-(trifluoromethyl)-1,3,4-oxadiazol-2-yl]phenyl}acetamide], under “HEK293 cells”, the IC50 was 1700 nM and the Emax is 91%.

Consider `NS(=O)(=O)c1cc(NC(=O)Cc2ccccc2Cl)ccc1-c1nnc(C(F)(F)F)o1` [Example 391, 2-(2-Chlorophenyl)-N-{3-sulfamoyl-4-[5-(trifluoromethyl)-1,3,4-oxadiazol-2-yl]phenyl}acetamide], for which the Emax (HEK293, HEK293 cells) came out at 98%. Under “HEK293 cells”, this compound gave a 50% inhibitory concentration (IC50) of 186 nM.

On to `NS(=O)(=O)c1cc(NC(=O)Cc2ccccc2Cl)ccc1-n1cnc(-c2cccnc2)n1` [Example 392, 2-(2-Chlorophenyl)-N-{4-[3-(pyridin-3-yl)-1H-1,2,4-triazol-1-yl]-3-sulfamoylphenyl}acetamide], for which the Emax (HEK293, HEK293 cells) was 64%. Moreover, the IC50 (HEK293 cells) amounted to 9660 nM.

Regarding `NS(=O)(=O)c1cc(NC(=O)Cc2ccccc2F)ccc1-n1cccn1` [Example 393, 2-(2-Fluorophenyl)-N-[4-(1H-pyrazol-1-yl)-3-sulfamoylphenyl]acetamide], the Emax (HEK293, HEK293 cells) stood at 49%.

The values above are taken from US11524938B2, “Aromatic sulfonamide derivatives” (Bayer Pharma Aktiengesellschaft, priority 2016, dated 2022).
